Laboratory results from paper PMC12075751 (Nature Communications, 2025).

Key:
FABP4 [1] = test: ELISA of serum FABP4, OVX mice, oral gavage study; format: in vivo, mouse; conditions: 28 days daily oral gavage, ALD […], BMS 10 mg/kg
PINP = test: ELISA of serum PINP, OVX mice, oral gavage study; format: in vivo, mouse; conditions: vs Model
CTX-1 = test: ELISA of serum CTX-1, OVX mice, oral gavage study; format: in vivo, mouse
OVX mice [2] = test: H&E staining of bone marrow adipose tissue, OVX mice, oral gavage study; format: in vivo, mouse; conditions: BMS vs ALD
FABP4 [3] = test: IHC of FABP4 in tibial bone marrow, OVX mice, oral gavage study; format: in vivo, mouse; conditions: BMS vs ALD
human BMSCs = test: Osteoblastic differentiation of BMSCs, Alizarin Red staining; format: cell-based; conditions: FABP4 25 or 50 ng/mL, with BMS 5 or 10 μM, 21-day induction
TRAP, c-Fos, NFATc1 = test: Western Blotting of OCs differentiation marker proteins; format: cell-based, mouse; conditions: OCs + BMS
OVX mice [4] = format: in vivo, mouse
OVX mice [5] = format: in vivo, mouse; conditions: BMS 10 mg/kg oral
OVX mice [6] = format: in vivo, mouse; conditions: BMS 10 mg/kg oral; remark: listed apart in the source
OVX mice [7] = test: Three-point bending test on femoral midshaft, OVX mice, oral gavage study; format: in vivo, mouse; conditions: oral administration of BMS
PK analysis in SD rats = format: in vivo, rat
BMMs = test: OCs formation from BMMs; format: cell-based, mouse; conditions: 25 ng/mL FABP4 during RANKL induction of BMMs
OCs [8] = test: Bone resorption activity of mature OCs on bovine bone slices; format: cell-based, mouse; conditions: SEM
OCs [9] = test: F-actin staining of OCs; format: cell-based, mouse; conditions: vs group with only RANKL and M-CSF
[10] = system: intracellular Ca2+ in OCs; test: Ca2+ concentration detection in OCs; format: cell-based, mouse; conditions: OCs + FABP4 (25 ng/mL)
[11] = OVX mice, BMS 10 mg/kg oral, 28 days

Molecule: NCCCC(O)(P(=O)(O)O)P(=O)(O)O [ALD, alendronate sodium]
- serum FABP4 levels vs Model group (FABP4 [1]): significantly reduced
- bone formation (serum PINP) (PINP): little effect
- bone resorption (serum CTX-1) (CTX-1): reduced
- bone marrow fat tissue (H&E staining) (OVX mice [2]): no significant difference
- FABP4 protein expression in bone marrow (IHC) (FABP4 [3]): no significant difference

Molecule: CCc1c(-c2ccccc2)c(-c2ccccc2)nn1-c1ccccc1-c1cccc(OCC(=O)O)c1 [BMS309403]
- osteogenic differentiation capacity of BMSCs (Alizarin Red staining) (human BMSCs): neither the FABP4 protein nor its inhibitor affected
- TRAP, c-Fos, and NFATc1 protein levels (TRAP, c-Fos, NFATc1): suppression
- bone resorption (serum CTX-1) (CTX-1): reduced
- efficacy in femur compared to ALD (OVX mice [4]; BMS 10 mg/kg, 7.7 times the ALD dose ([…]), oral): did not achieve the same efficacy
- femoral BMD (OVX mice [4]; [11]): increased
- trabecular thickness (Tb.Th), distal femur (OVX mice [4]; [11]): increased
- trabecular number (Tb.N), distal femur (OVX mice [4]; OVX mice, BMS 10 mg/kg oral, 28 days, listed as BMS): increased
- BMD, L5 lumbar vertebra (OVX mice [5]): significantly improving
- Tb.N, L5 lumbar vertebra (OVX mice [5]): significantly improving
- Tb.Th, L5 lumbar vertebra (OVX mice [5]): significantly improving
- bone volume/total volume (BV/TV), L5 lumbar vertebra (OVX mice [5]): significantly improving
- trabecular separation (Tb.Sp), L5 lumbar vertebra (OVX mice [5]): significantly improving
- bone resorption in vivo (TRAP staining of tibia sections) (OVX mice [6]): inhibitory effect
- bone stiffness, femoral midshaft (OVX mice [7]): improved
- elastic modulus, femoral midshaft (OVX mice [7]): improved
- Cl (PK analysis in SD rats; IV 2.0 mg/kg, G1-Mean (n = 3)): 11.523 mL/min/kg
- MRT(0-∞) (PK analysis in SD rats; IV 2.0 mg/kg, G1-Mean (n = 3)): 0.84 h
- Vz (PK analysis in SD rats; IV 2.0 mg/kg, G1-Mean (n = 3)): 1.73416 L/kg
- Cmax (PK analysis in SD rats; IV 2.0 mg/kg, G1-Mean (n = 3), listed as BMS, 2 mg/kg): 7094.95 ng/mL
- AUC(0-t) (PK analysis in SD rats; PO 10.0 mg/kg, G2-Mean (n = 3)): 5527.36 ng·h/mL
- T1/2 (PK analysis in SD rats; PO 10.0 mg/kg, G2-Mean (n = 3), listed as BMS, 10 mg/kg): 3.16 h

B1: FABP4: recombinant FABP4 protein (MCE, cat#HY-P70293) (protein, UniProt P04117 2-132, looked up)
Fatty acid-binding protein, …: CDAFVGTWKLVSSENFDDYMKEVGVGFATRKVAGMAKPNMIISVNGDLVTIRSESTFKNTEISFKLGVEFDEITADDRKVKSIITLDGGALVQVQKWDGKSTTIKRKRDGDKLVVECVMKGVTSTRVYERA
- osteogenic differentiation capacity of BMSCs (Alizarin Red staining) (human BMSCs): neither the FABP4 protein nor its inhibitor affected
- formation of OCs (TRAP staining) (BMMs): significantly promoted the formation of OCs
- bone resorption by mature OCs on bovine bone slices (OCs [8]): enhanced bone resorption
- F-actin / bone skeleton structure of OCs (OCs [9]): more regular and distinct bone skeleton structure with abundant F-actin
- intracellular calcium levels in OCs [10]: significant increase
